What all share (format): cell-based
The test system of experiment [1] is MCF7 cells (ATCC #HTB-22). In words: Cellular growth inhibition assay, MCF7 cells purchased from ATCC. The following applies: Homo sapiens, MCF7, 144 h, Table 8-A; MCF7 cells purchased from ATCC; six days; CellTiter-Glo; read-out: GI50. The procedure, abridged: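 GI50 values come from a four-parameter fit of CellTiter-Glo 2.0 luminescence after six days of compound exposure at 37° C. Seeding density depended on the source: 225 cells/well for ECACC MCF7, 1,500 for ATCC. Medium was RPMI 1640 with 10% FBS and 0.2 U/ml insulin.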
(In general: In ATP-based viability assays light output follows the ATP content of the culture.)

Experiment [2] has as its system T-Rex 293 cells lacking increased expression of estrogen receptor alpha protein. The experiment is described as follows: Cellular growth inhibition assay, T-Rex 293 cells, (−) doxycycline. The following applies: T-REx-293, 72 h, Table 7-A; T-Rex 293 cells without doxycycline (lacking increased ERα expression); 72 hours; CellTiter-Glo; read-out: (−) Dox GI50. Put shortly: (§1)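 Cells of an inducible ERα-expressing T-Rex 293 clone are seeded in charcoal-dextran FBS medium with or without 3 ng/mL doxycycline, then treated after 24 h with compound dilutions (0.5% DMSO) for 72 h. Growth inhibition is measured by CellTiter-Glo luminescence and expressed as GI50.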

Experiment [3] relates to T-Rex 293 cells having increased expression of estrogen receptor alpha protein. The experiment is described as follows: Cellular growth inhibition assay, T-Rex 293 cells, (+) doxycycline. The following applies: T-REx-293, 72 h, Table 7-A; T-Rex 293 cells with doxycycline (increased ERα expression); 72 hours; CellTiter-Glo; read-out: (+) Dox GI50. Put shortly: as §1

`Cc1sc2c(c1C)C(c1ccc(N3CCC(O)(CN4CCN(c5ccc([C@H]6c7ccc(O)cc7CC[C@H]6c6cccc(F)c6)c(F)c5)CC4)CC3)cc1)=N[C@@H](C)c1nnc(C)n1-2` [III-290]: the GI50 in experiment [1] is 50 to 500 nM; in experiment [2], 50 to 500 nM; in experiment [3], less than 50 nM.
For the compound `Cc1sc2c(c1C)C(c1ccc(N3CCC(O)(CN4CCN(c5ccc([C@@H]6c7ccc(O)cc7CC[C@@H]6c6ccccc6F)c(F)c5)CC4)CC3)cc1)=N[C@@H](C)c1nnc(C)n1-2` [III-291], the figures for the GI50 in experiment [1], in experiment [2] and in experiment [3] were less than 50 nM, 500 to 2500 nM and less than 50 nM, respectively.
Turning to `Cc1sc2c(c1C)C(c1ccc(N3CCC(O)(CN4CCN(c5ccc([C@H]6c7ccc(O)cc7CC[C@H]6c6ccccc6F)c(F)c5)CC4)CC3)cc1)=N[C@@H](C)c1nnc(C)n1-2` [III-292], the GI50 in experiment [1], in experiment [2] and in experiment [3] was 50 to 500 nM in each case.
For `Cc1sc2c(c1C)C(c1ccc(N3CCC(O)(CN4CCN(c5ccc([C@@H]6c7ccc(O)cc7CC[C@@H]6c6c(F)cccc6F)c(F)c5)CC4)CC3)cc1)=N[C@@H](C)c1nnc(C)n1-2` [III-293], the GI50 was less than 50 nM in experiment [1], 500 to 2500 nM in experiment [2] and less than 50 nM in experiment [3].
In the case of `Cc1sc2c(c1C)C(c1ccc(N3CCC(O)(CN4CCN(c5ccc([C@H]6c7ccc(O)cc7CC[C@H]6c6c(F)cccc6F)c(F)c5)CC4)CC3)cc1)=N[C@@H](C)c1nnc(C)n1-2` [III-294], the GI50 in experiment [1], in experiment [2] and in experiment [3] was 50 to 500 nM each time.
For the compound `Cc1sc2c(c1C)C(c1ccc(N3CC4(CC(CN5CCN(c6cc(F)c([C@H]7c8ccc(O)cc8CC[C@H]7c7ccc(F)cc7)c(F)c6)CC5)C4)C3)cc1)=N[C@@H](C)c1nnc(C)n1-2` [III-295], the GI50 was 50 to 500 nM in experiment [1], 500 to 2500 nM in experiment [2] and 500 to 2500 nM in experiment [3].
As for `Cc1sc2c(c1C)C(c1ccc(N3CC4(CC(CN5CCN(c6cc(F)c([C@@H]7c8ccc(O)cc8CC[C@@H]7c7ccc(F)cc7)c(F)c6)CC5)C4)C3)cc1)=N[C@@H](C)c1nnc(C)n1-2` [III-296], the GI50 is 50 to 500 nM in experiment [1], 500 to 2500 nM in experiment [2] and 50 to 500 nM in experiment [3].
On to `Cc1cc(N2CCN(CC3(O)CCN(c4ccc(C5=N[C@@H](C)c6nnc(C)n6-c6sc(C)c(C)c65)cc4)CC3)CC2)ccc1[C@H]1c2ccc(O)cc2CC[C@H]1c1ccc(F)cc1` [III-297], for which the GI50 in experiment [1], in experiment [2] and in experiment [3] was 50 to 500 nM each time.
Consider `Cc1cc(N2CCN(CC3(O)CCN(c4ccc(C5=N[C@@H](C)c6nnc(C)n6-c6sc(C)c(C)c65)cc4)CC3)CC2)ccc1[C@@H]1c2ccc(O)cc2CC[C@@H]1c1ccc(F)cc1` [III-298], for which the GI50 in experiment [1], in experiment [2] and in experiment [3] was 50 to 500 nM throughout.
For the compound `Cc1sc2c(c1C)C(c1ccc(N3CCC(O)(CN4CCN(c5cc(F)c([C@@H]6c7ccc(O)cc7CC[C@@H]6c6ccccc6)cc5F)CC4)CC3)cc1)=N[C@@H](Cc1ncco1)c1nnc(C)n1-2` [III-299], the concentration for 50% growth inhibition (GI50) in experiment [1] is less than 50 nM; in experiment [2], 50 to 500 nM; in experiment [3], less than 50 nM.
In the case of `Cc1sc2c(c1C)C(c1ccc(N3CCC(O)(CN4CCN(c5cc(F)c([C@H]6c7ccc(O)cc7CC[C@H]6c6ccccc6)cc5F)CC4)CC3)cc1)=N[C@@H](Cc1ncco1)c1nnc(C)n1-2` [III-300], the figures for the GI50 in experiment [1], in experiment [2] and in experiment [3] were 50 to 500 nM, 50 to 500 nM and less than 50 nM, respectively.
In the case of `Cc1sc2c(c1C)C(c1ccc(N3CCC(O)(CN4CCN(c5ccc([C@H]6c7ccc(O)cc7CC[C@H]6c6ccc(F)cc6)cc5Cl)CC4)CC3)cc1)=N[C@@H](C)c1nnc(C)n1-2` [III-301], the GI50 lay in the range of 50 to 500 nM in experiment [1], 500 to 2500 nM in experiment [2] and 500 to 2500 nM in experiment [3].
With `Cc1sc2c(c1C)C(c1ccc(N3CCC(O)(CN4CCN(c5ccc([C@@H]6c7ccc(O)cc7CC[C@@H]6c6ccc(F)cc6)cc5Cl)CC4)CC3)cc1)=N[C@@H](C)c1nnc(C)n1-2` [III-302], the GI50 fell in the range of 50 to 500 nM in experiment [1], 500 to 2500 nM in experiment [2] and 50 to 500 nM in experiment [3].

One may read the GI50 as the concentration at which growth is held to half of that of the control.
